Reference: patent US8598344B2, “CDKI pathway inhibitors and uses thereof” (Senex Biotechnology, priority 2009, dated 2013)
pIC50: −log10 of the molar value. Like-named read-outs stand apart in the source and are kept apart here.

Legend:
[1] = system: induction of transcription by p21 (CDKI pathway, CMV promoter-GFP) in HT1080 fibrosarcoma cells; test: Cellular assay for CDKI pathway inhibition: CMV-GFP induction by IPTG-inducible p21 in HT1080 reporter cells; type: cell-based, human; details: for IC50: Table 2, calculated assuming maximal effect = zero GFP/Hoechst, no unit in table, μM from FIG. 8 legend, no activity at 40 μM given as >100, read-out: IC50 in the cellular assay
Description: Briefly, the reporter cell line described in the above-referenced application, which carries IPTG (isopropyl-β-thio-galactoside)-inducible p21 gene together with a p21-inducible promoter driving the expression of Green Fluorescent Protein (GFP) was plated in 96-well plates, at 2000 cells per well for the no-IPTG arm of the assay and at 5000 cells per well for the IPTG arm of the assay. To induce the maximal levels of p21, IPTG was added to 50 μM concentration. Serial 2-fold dilutions of the tested compounds were added in quadruplicates to wells with and without IPTG, ˜10 min after IPTG addition.
This assay is based on the induction of green fluorescent protein (GFP) expression from the cytomegalovirus (CMV) promoter in human HT1080 fibrosarcoma cells that express CDKI p21 from an isopropyl-(3-thio-galactoside (IPTG)-inducible promoter. The compound activity as a CDKI pathway inhibitor is measured by its ability to prevent the stimulation of the CMV promoter upon the addition of p21-inducing IPTG. CMV promoter activity is measured by the ratio of GFP fluorescence to the relative cell number, as determined by staining cellular DNA with Hoechst 33342. This assay was conducted in two modes. […]

STK16 = molecular target: T1, STK16 (Homo sapiens, UniProt O75716); test: KinomeScan competition binding assay; details: 10 μM compound
T1 construct: purchased KinomeScan, a division of Ambit Biosciences
T1 sequence (O75716 whole entry): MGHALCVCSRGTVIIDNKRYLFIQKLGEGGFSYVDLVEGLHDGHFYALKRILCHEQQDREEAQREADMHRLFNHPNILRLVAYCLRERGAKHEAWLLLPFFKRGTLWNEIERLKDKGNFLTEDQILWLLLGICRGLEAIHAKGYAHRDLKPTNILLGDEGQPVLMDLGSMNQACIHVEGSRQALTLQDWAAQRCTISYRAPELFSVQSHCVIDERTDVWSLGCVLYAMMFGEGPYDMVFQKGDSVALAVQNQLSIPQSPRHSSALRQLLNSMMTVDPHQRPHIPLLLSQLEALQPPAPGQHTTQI
Outline: (§1)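 qPCR read-out of DNA tag; DNA-tagged kinase + immobilized ATP-site ligand + test compound. Competition binding expressed as % of control (POC) or Kd.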

IRAK1 = molecular target: T2, IRAK1 (Homo sapiens, UniProt P51617); test: KinomeScan competition binding assay; details: 10 μM compound
T2 construct: purchased KinomeScan, a division of Ambit Biosciences
T2 sequence (P51617 whole entry): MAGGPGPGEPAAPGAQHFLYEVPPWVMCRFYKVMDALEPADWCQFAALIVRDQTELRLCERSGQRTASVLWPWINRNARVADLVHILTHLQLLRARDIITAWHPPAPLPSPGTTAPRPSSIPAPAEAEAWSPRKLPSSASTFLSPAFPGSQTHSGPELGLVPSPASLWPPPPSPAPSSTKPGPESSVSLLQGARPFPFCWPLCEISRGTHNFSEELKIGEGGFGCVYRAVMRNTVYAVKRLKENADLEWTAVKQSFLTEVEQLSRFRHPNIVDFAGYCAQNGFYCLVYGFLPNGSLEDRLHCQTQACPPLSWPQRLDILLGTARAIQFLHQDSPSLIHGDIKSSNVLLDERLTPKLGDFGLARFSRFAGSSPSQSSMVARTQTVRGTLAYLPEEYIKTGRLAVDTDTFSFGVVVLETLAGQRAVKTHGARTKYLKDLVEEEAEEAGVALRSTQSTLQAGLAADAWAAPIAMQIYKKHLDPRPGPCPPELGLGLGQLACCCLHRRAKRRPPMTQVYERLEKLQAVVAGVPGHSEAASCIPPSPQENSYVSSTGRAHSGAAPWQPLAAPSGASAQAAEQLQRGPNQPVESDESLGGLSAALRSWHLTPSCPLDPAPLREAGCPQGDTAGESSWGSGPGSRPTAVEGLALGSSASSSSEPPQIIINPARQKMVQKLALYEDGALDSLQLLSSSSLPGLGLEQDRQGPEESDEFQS
Outline: as §1

CSNK1G2 = molecular target: T3, CSNK1G2 (Homo sapiens, UniProt P78368); test: KinomeScan competition binding assay; details: 10 μM compound
T3 construct: purchased KinomeScan, a division of Ambit Biosciences
T3 sequence (P78368 whole entry): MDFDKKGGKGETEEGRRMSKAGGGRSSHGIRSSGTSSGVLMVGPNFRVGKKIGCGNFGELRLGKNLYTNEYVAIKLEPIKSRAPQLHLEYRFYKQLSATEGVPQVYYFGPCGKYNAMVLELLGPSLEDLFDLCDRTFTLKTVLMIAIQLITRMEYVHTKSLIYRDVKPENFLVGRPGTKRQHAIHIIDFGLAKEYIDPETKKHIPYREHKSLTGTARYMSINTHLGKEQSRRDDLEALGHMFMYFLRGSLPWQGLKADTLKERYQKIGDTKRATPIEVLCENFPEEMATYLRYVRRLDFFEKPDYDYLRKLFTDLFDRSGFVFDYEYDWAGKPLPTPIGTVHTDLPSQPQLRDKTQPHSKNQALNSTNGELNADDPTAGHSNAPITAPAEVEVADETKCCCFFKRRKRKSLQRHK
Outline: as §1

CLK2 = molecular target: T4, CLK2 (Homo sapiens, UniProt P49760); test: KinomeScan competition binding assay; details: 10 μM compound
T4 construct: purchased KinomeScan, a division of Ambit Biosciences
T4 sequence (P49760 whole entry): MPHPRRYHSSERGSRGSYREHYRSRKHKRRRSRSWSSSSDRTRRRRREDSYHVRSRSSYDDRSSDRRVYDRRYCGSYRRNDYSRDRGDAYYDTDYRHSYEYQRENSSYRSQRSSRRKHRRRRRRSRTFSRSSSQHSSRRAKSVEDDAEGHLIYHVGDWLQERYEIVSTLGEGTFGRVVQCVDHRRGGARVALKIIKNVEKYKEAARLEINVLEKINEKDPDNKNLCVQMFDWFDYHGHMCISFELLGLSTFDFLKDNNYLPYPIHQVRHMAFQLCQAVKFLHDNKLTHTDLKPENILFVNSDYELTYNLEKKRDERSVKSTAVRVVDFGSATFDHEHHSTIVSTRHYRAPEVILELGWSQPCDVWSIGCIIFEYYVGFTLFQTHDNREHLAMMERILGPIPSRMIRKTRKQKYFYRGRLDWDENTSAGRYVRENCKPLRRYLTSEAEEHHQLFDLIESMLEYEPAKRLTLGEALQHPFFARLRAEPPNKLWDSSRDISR
Outline: as §1

BTK = molecular target: T5, BTK (Homo sapiens, UniProt Q06187); test: KinomeScan competition binding assay; details: 10 μM compound
T5 construct: purchased KinomeScan, a division of Ambit Biosciences
T5 sequence (Q06187 whole entry): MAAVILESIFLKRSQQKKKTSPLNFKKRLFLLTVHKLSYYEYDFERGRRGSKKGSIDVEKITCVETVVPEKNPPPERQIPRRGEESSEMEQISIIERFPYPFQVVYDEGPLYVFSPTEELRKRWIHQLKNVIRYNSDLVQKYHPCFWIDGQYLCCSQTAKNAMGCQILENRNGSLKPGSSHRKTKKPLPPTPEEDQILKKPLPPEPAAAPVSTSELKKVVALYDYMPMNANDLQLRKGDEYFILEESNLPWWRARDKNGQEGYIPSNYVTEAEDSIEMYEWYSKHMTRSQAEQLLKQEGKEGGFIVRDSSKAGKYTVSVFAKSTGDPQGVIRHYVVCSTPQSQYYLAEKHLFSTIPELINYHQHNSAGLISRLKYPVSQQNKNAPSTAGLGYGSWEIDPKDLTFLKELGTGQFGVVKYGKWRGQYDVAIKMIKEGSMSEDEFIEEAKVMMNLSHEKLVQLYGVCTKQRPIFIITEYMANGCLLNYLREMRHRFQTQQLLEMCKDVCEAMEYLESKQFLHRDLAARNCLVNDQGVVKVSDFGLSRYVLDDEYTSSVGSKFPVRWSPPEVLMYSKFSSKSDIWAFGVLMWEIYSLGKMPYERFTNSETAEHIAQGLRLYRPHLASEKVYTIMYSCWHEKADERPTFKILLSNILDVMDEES
Outline: as §1

YSK4 = molecular target: T6, YSK4 (Homo sapiens, UniProt Q56UN5); test: KinomeScan competition binding assay; details: 10 μM compound
T6 construct: purchased KinomeScan, a division of Ambit Biosciences
T6 sequence (Q56UN5 1-1328): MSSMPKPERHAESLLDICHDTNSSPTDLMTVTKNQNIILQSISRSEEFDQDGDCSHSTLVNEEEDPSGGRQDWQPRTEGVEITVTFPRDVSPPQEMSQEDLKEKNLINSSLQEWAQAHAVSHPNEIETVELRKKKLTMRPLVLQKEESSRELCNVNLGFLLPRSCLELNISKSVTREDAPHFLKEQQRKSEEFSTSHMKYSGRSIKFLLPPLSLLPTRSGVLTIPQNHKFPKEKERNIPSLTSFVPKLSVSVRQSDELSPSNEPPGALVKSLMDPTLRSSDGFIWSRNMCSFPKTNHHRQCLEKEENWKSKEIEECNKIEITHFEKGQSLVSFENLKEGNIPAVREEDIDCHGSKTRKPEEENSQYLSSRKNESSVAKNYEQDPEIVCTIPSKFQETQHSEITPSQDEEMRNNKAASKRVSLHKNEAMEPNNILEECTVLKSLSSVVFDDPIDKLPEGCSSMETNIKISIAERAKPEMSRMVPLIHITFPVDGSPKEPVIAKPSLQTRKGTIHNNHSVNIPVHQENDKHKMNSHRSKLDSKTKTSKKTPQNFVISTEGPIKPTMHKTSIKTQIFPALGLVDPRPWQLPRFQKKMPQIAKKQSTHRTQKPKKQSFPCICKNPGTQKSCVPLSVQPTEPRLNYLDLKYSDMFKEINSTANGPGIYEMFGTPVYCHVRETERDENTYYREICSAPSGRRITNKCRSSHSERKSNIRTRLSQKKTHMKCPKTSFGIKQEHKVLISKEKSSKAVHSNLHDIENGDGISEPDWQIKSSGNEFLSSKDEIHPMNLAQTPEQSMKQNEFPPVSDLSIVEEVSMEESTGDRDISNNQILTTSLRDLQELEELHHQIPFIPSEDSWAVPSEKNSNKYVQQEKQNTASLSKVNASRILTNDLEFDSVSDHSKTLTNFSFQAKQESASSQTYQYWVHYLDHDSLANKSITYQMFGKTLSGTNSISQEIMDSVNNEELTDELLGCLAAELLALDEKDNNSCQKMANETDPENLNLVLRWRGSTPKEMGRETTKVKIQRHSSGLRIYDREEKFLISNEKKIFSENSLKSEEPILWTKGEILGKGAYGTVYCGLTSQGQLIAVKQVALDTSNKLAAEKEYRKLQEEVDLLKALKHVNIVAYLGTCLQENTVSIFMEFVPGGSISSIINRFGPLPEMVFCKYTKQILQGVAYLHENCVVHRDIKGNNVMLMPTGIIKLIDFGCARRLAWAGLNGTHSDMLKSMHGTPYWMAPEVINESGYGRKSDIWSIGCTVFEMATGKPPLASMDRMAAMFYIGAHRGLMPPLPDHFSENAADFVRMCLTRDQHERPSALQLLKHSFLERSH
Outline: as §1

[2] = Table 1, IC50 calculated on the basis of the maximal inhibition produced by the highest doses, IPTG mode (50 μM or 2 μM) not stated, read-out: Cell-based assay (IC50)

N#Cc1ccc2ncnc(NCCc3ccccc3)c2c1 [compound 1]
pIC50 [1, 2]: 6.19 | IC50 [1]: 1.3 µM | pIC50 ([1]; read-out: IC50, p21 induced by 8 μM IPTG, 8 μM IPTG, 72 hours): 6.24 | POC ligand binding, STK16 (STK16): 4.2 POC | POC ligand binding, IRAK1 (IRAK1): 8.2 POC | POC ligand binding, CSNK1G2 (CSNK1G2): 16 POC | POC ligand binding, CLK2 (CLK2): 3.8 POC | POC ligand binding, BTK (BTK): 15 POC | POC ligand binding, YSK4 (YSK4): 5.4 POC

N#Cc1ccc2ncnc(NCc3ccc4ccccc4c3)c2c1 [compound 14]
pIC50 [1, 2]: 5.60 | IC50 [1]: 1.2 µM | POC ligand binding, STK16 (STK16; 10 µM): 2.4 POC | POC ligand binding, IRAK1 (IRAK1; 10 µM): 35 POC | POC ligand binding, CSNK1G2 (CSNK1G2; 10 µM): 43 POC | POC ligand binding, CLK2 (CLK2; 10 µM): 24 POC | POC ligand binding, BTK (BTK): 100 POC | POC ligand binding, YSK4 (YSK4; 10 µM): 21 POC

N#Cc1ccc2ncnc(NCc3ccc(Cl)cc3)c2c1 [compound 20]
pIC50 [1, 2]: 6.70 | IC50 [1]: 0.6 µM | POC ligand binding, STK16 (STK16): 25 POC | POC ligand binding, IRAK1 (IRAK1): 26 POC | POC ligand binding, CSNK1G2 (CSNK1G2): 62 POC | POC ligand binding, CLK2 (CLK2): 16 POC | POC ligand binding, BTK (BTK): 100 POC | POC ligand binding, YSK4 (YSK4): 31 POC

N#Cc1ccc2ncnc(NCCc3ccc4ccccc4c3)c2c1 [compound 26]
pIC50 [1, 2]: 6.11 | IC50 [1]: 1.15 µM | POC ligand binding, STK16 (STK16): 16 POC | POC ligand binding, IRAK1 (IRAK1): 89 POC | POC ligand binding, CSNK1G2 (CSNK1G2): 57 POC | POC ligand binding, CLK2 (CLK2): 58 POC | POC ligand binding, BTK (BTK): 100 POC | POC ligand binding, YSK4 (YSK4): 44 POC

N#Cc1ccc2ncnc(NCc3ccc4ccccc4c3)c2c1 [compound 43]
pIC50 [1, 2]: 6.66 | IC50 [1]: 0.95 µM | POC ligand binding, STK16 (STK16; 10 µM): 30 POC | POC ligand binding, IRAK1 (IRAK1; 10 µM): 7.6 POC | POC ligand binding, CSNK1G2 (CSNK1G2; 10 µM): 53 POC | POC ligand binding, CLK2 (CLK2; 10 µM): 9.6 POC | POC ligand binding, BTK (BTK): 100 POC | POC ligand binding, YSK4 (YSK4; 10 µM): 29 POC

COc1ccc2ncnc(NCCc3ccccc3)c2c1 [compound 44]
IC50 [1]: 11 µM | POC ligand binding, STK16 (STK16): 70 POC | POC ligand binding, IRAK1 (IRAK1): 64 POC | POC ligand binding, CSNK1G2 (CSNK1G2): 80 POC | POC ligand binding, CLK2 (CLK2): 34 POC | POC ligand binding, BTK (BTK): 100 POC | POC ligand binding, YSK4 (YSK4): 39 POC

CC(C)CNc1ncnc2ccc(C(F)(F)F)cc12 [compound 45]
IC50 [1]: 12.8 µM | POC ligand binding, STK16 (STK16): 17 POC | POC ligand binding, IRAK1 (IRAK1): 25 POC | POC ligand binding, CSNK1G2 (CSNK1G2): 53 POC | POC ligand binding, CLK2 (CLK2): 8.6 POC | POC ligand binding, BTK (BTK): 100 POC | POC ligand binding, YSK4 (YSK4): 41 POC

CCCNc1ncnc2ccc(N3CCOCC3)cc12 [compound 46]
IC50 [1]: > 100 µM | POC ligand binding, STK16 (STK16): 80 POC | POC ligand binding, IRAK1 (IRAK1): 81 POC | POC ligand binding, CSNK1G2 (CSNK1G2): 55 POC | POC ligand binding, CLK2 (CLK2): 66 POC | POC ligand binding, BTK (BTK): 81 POC | POC ligand binding, YSK4 (YSK4): 91 POC
